{
  "source": "paper PMC8524858",
  "about": "“Dual inhibition of αvβ6 and αvβ1 reduces fibrogenesis in lung tissue explants from patients with IPF” (Respiratory Research, 2021)",
  "key": {"[1]": {"system": "PCLSs prepared from explanted lung tissue from patients with IPF", "test": "Fibrotic gene expression in PCLSs from IPF lung explants", "assay_type": "cell-based, human", "source_text": "(§1) PCLSs were generated from explanted lung tissue from patients with IPF and cultured as previously described. Mouse PCLSs were generated and cultured as previously described. Messenger ribonucleic acid (mRNA) levels in lysates prepared from snap-frozen tissue slices were quantified via NanoString PlexSet reagents and nCounter SPRINT Profiler (NanoString; Seattle, WA, USA; Additional file 1: Table S2) or TaqMan primers/probes on a Bio-Rad CFX96 thermocycler (Bio-Rad; Hercules, CA, USA; Additional file 1: Table S3).\nHuman PCLSs were generated from lung tissue explants from patients with IPF undergoing transplant surgery and cultured based on previously reported methods (E7-E12). Slices of tissue (400 µm) were cut using a Compresstome VF-300-0Z (Precisionary Instruments; Natick, MA, USA).\n(§2) Slices from each individual core (human) or mouse were distributed among the treatment groups to control for variability in the fibrotic injury within the tissue. […] After 3 or 7 days in culture, slices were washed and snap-frozen. Viability of sentinel slices on Days 0/1 and 3/7 was determined using WST-1 Cell Proliferation Reagent (Sigma 5015944001; St Louis, MO, USA).\n(§3) For all figures (except Fig. 2B, Fig. S2, and Fig. S4), snap-frozen tissue slices were incubated in one-third RLT buffer (Qiagen #79216; Venlo, Netherlands) supplemented with 2 mg/ml proteinase K (Sigma-Aldrich #3115887001; St Louis, MO, USA) at 55 °C for 2 h 45 min, with periodic vortexing to generate ribonucleic acid (RNA)-compatible tissue lysate. This lysate was incubated overnight with probes from a custom fibrosis gene panel and NanoString PlexSet reagents (Table S2). The following day, samples were analyzed on a NanoString nCounter SPRINT Profiler (NanoString; Seattle, WA, USA). Messenger RNA (mRNA) counts were normalized to housekeeping genes (GUSB, HPRT1, RPLP0, and/or POLR1B) and total mRNA counts, relative to vehicle-treated control from the same experiment, are reported."}, "[2]": {"target": "T1, human integrin αvβ1 (Homo sapiens, UniProt P05556+P06756)", "T1 construct": "purchased ACROBiosystems or R&D Systems IT1-H52E1 or 6579-AVB", "T1 sequence (P06756 31-992 limits assumed)": "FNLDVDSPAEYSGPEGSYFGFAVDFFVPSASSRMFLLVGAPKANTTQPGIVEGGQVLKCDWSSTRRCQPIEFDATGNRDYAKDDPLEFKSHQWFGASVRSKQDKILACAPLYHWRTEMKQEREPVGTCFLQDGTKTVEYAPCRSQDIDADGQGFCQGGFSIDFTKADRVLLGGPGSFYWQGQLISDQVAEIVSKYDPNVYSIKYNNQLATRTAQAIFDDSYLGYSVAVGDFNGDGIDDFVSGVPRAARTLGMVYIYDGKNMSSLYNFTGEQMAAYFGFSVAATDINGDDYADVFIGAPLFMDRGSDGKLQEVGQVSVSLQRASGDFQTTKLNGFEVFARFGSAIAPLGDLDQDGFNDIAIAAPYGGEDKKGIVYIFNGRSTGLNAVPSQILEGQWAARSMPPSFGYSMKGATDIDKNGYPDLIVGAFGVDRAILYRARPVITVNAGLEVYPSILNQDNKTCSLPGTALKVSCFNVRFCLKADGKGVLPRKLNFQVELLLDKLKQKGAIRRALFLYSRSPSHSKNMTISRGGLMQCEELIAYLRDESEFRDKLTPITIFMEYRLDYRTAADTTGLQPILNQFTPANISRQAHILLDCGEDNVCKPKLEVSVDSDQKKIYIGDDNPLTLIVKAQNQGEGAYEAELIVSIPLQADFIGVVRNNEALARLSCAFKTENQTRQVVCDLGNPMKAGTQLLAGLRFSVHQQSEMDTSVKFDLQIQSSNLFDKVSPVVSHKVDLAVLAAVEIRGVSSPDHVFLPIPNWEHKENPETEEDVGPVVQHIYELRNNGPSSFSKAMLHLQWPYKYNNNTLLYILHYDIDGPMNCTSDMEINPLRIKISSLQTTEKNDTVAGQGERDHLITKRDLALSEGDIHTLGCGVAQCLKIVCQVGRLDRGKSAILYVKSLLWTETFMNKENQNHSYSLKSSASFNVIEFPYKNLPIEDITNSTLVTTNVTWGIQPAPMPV", "T1 sequence (P05556 21-728 limits assumed)": "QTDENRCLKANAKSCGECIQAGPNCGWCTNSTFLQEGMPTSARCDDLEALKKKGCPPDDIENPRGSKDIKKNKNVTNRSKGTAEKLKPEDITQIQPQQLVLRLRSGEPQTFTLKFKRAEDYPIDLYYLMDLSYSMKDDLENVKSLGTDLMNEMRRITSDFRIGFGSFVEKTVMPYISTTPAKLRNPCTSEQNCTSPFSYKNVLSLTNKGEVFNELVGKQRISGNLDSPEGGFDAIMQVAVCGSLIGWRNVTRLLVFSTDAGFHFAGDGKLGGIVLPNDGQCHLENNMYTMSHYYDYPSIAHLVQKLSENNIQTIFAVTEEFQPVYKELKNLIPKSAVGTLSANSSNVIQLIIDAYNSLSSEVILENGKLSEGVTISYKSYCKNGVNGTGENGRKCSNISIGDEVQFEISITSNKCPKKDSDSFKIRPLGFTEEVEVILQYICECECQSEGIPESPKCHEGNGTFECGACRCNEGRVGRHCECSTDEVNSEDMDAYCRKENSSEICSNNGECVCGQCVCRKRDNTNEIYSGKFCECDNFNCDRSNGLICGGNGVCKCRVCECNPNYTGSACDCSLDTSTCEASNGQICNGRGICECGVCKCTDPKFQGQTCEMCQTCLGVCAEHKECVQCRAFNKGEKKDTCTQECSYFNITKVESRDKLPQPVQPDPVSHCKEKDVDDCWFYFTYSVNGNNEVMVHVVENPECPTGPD", "test": "Integrin ligand-binding assay, αvβ1 (fibronectin ligand)", "protocol": "Integrin ligand-binding assays were performed similar to that previously described.\nMicroplates were coated with recombinant human integrins dissolved in PBS (2 µg/ml, overnight at room temperature). Following removal of the coating solution, plates were washed with PBS. Plates were blocked with 200 µL/well of blocking buffer (2% bovine serum albumin [BSA] in PBS) at 37 °C for 1 h. […] Plates were incubated for 2 h at 25 °C, washed, and incubated for 1 h with biotin-labeled anti-fibronectin or anti-LAP antibodies (for αvβ1 or αvβ6/αvβ8, respectively)."}, "[3]": {"system": "normal human bronchial epithelial cell adhesion to LAP (αvβ6 integrin-mediated)", "test": "Primary cell LAP adhesion assay (cell impedance), NHBE", "assay_type": "cell-based", "details": "normal human bronchial epithelial cells, read-out: IC50 for inhibition of adhesion to LAP", "protocol": "Adhesion of primary human lung cells to LAP was quantified using the xCELLigence RTCA MP instrument (ACEA Biosciences; San Diego, CA, USA) via cell impedance measurements similar to that previously described.\nAdhesion assays were performed using the xCELLigence RTCA MP instrument (ACEA Biosciences; San Diego, CA, USA) on 96-well PET plates (ACEA Biosciences; 300600910) via a cell impedance measurement similar to one previously described (E6). Plates were coated with LAP (Sino Biological; 10804-H08H1) overnight at 4 °C and blocked with BSA for 2 h at 37 °C. NHLF (40,000 cells/well), dHLF (40,000 cells/well), or NHBE (20,000 cells per well) in FBS-free media were combined with small-molecule integrin inhibitors or antibodies in the plates and incubated at 37 °C with 5% CO2. […] Anti-αv antibody, 17E6, and anti-β1 antibody, P5D2, were tested at a single concentration (10 μg/ml). Cell impedance (cell index) was measured at baseline and every 3 min for up to 24 h using xCELLigence RTCA 2.1.0 Software (ACEA Biosciences). […] Geometric mean IC50 was calculated for each compound following repeat analyses of multiple donor cells."}, "[4]": {"system": "PCLSs prepared from bleomycin-challenged mouse lungs", "test": "Col1a1 expression in PCLSs from bleomycin-challenged mouse lungs", "assay_type": "cell-based", "source_text": "as §1\nMouse PCLSs were generated and cultured based on previously reported methods (E13). Briefly, mice were challenged with bleomycin (Hospira; Lake Forest, IL, USA or Teva; Toronto, ON, Canada), either acutely with a single dose (3 U/kg or 4 U/kg) or chronically with multiple doses (3 U/kg bleomycin followed by four 1 U/kg challenges at 2-week intervals). Fourteen days after the final bleomycin challenge, lungs were harvested and 200 μm-thick slices were cut using a Compresstome VF-300-0Z (Precisionary Instruments).\nas §2, §3\nFor Figs. 2B, S2, and S4, RNA purification and qPCR were performed by Transcriptic, Inc. (Menlo Park, CA, USA) using a proprietary automated protocol. Briefly, RNA was purified on a KingFisher Flex system (Thermo Fisher) and qPCR was performed on a Bio-Rad CFX96 (Bio-Rad; Hercules, CA, USA) with TaqMan primers/probes (Thermo Fisher) listed in Table S3. Ct values were normalized to housekeeping genes (Rn18sRn45s and Hprt) and reported as ddCT and fold change versus the vehicle-treated samples."}, "[5]": {"details": "7 days, PLN-74809 200 nM, relative to vehicle (Fig. 6B)"}},
  "data": [
    {"smiles": "COCCN(CCCCc1ccc2c(n1)NCCC2)CC[C@H](Nc1ncnc2ccccc12)C(=O)O", "note": "[PLN-74809]", "values": [
      {"measurement": "reduction of COL1A1 mRNA expression", "setting": "[1]; 7-day incubation, Compound A 471 nM, 3G9 0.5 µg/ml, PLN-74809 1.82 µM, ALK5i R-268712 1 µM, vs vehicle (Fig. 1A)", "value": 54, "unit": "%"},
      {"measurement": "reduction of COL1A1 mRNA expression", "setting": "[1]; 7 days, PLN-74809 200 nM, nintedanib 75 nM, pirfenidone 50 µM, vs DMSO (Fig. 6A)", "value": 42, "unit": "%"},
      {"measurement": "reduction of COL3A1 expression", "setting": "[1]; [5]", "value": 30, "unit": "%"},
      {"measurement": "reduction of SERPINE1 expression", "setting": "[1]; [5]", "value": 39, "unit": "%"},
      {"measurement": "reduction of TIMP1 expression", "setting": "[1]; [5]", "value": 26, "unit": "%"},
      {"measurement": "reduction of collagen gene expression", "setting": "[1]; at concentrations as low as 2 nM, explanted tissue from a patient with IPF", "value": "~ 50%"},
      {"measurement": "lowest concentration sufficient to significantly reduce COL1A1 expression", "setting": "[1]; dose titration, PCLSs from a single patient with IPF (Fig. S1C)", "value": 2, "unit": "nM"},
      {"measurement": "IC50", "setting": "[2]", "value": 3.4, "unit": "nM"},
      {"measurement": "Fold selectivity (vs αvβ6)", "setting": "[2]; ligand binding", "value": 0.6, "unit": "×"},
      {"measurement": "IC50", "setting": "[3]", "value": 39.3, "unit": "nM"},
      {"measurement": "lowest concentration with significant reduction of Col1a1 mRNA expression", "setting": "[4]; 3 days of treatment (Fig. S2)", "value": 16, "unit": "nM"},
      {"measurement": "reduction of Col1a1 mRNA expression", "setting": "[4]; 3 days of treatment, dose titration (Fig. S2)", "value": "up to 71%"},
      {"measurement": "IC50", "setting": "[4]; Mus musculus, 72 h, 3 days of treatment, extrapolation from dose-response curve of combined experiments (Fig. S4), read-out: minimum concentration required to reduce Col1a1 mRNA levels by 50%", "value": 172, "unit": "nM"},
      {"measurement": "inhibition of collagen mRNA expression", "setting": "[4]; acutely injured mouse lungs, 3 days, PLN-74809 200 nM, GSK3008348 1000 nM, CWHM-12 1000 nM (Fig. 2B)", "value": "virtually the same degree as less selective multi-αv integrin inhibitors"},
      {"measurement": "effect on Col1a1 gene expression", "setting": "[4]; chronic bleomycin-challenged mouse lungs, 7 days of treatment, nintedanib and pirfenidone at approximate clinical Cmax (Fig. 6C)", "value": "significantly reduced"},
      {"measurement": "effect on Col1a1 mRNA expression", "setting": "[4]; chronic bleomycin-challenged mouse lungs, 7 days, Compound A 471 nM, 3G9 0.5 µg/ml, PLN-74809 1.82 µM (Fig. 2A)", "value": "effective at significantly reducing"}
    ]}
  ]
}
